Assays:
Assay in all cases: relative viability (nuclei count vs DMSO), 5 days (fraction); higher = more cells survive
[1] = compound: COc1cc2nc(N3CCCN(C)CC3)nc(NC3CCN(Cc4ccccc4)CC3)c2cc1OC + CCNC(=O)c1noc(-c2cc(C(C)C)c(O)cc2O)c1-c1ccc(CN2CCOCC2)cc1 [Luminespib] (partner 0.01 µM)
Method in brief: (§1)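 Values are medians from duplicate plates. Each reflects relative viability, defined as the nuclei count of treated wells over that of vehicle wells. Lung cancer cell lines in 1536-well plates were pin-tool dosed one day after seeding with one drug alone or with a fixed anchor-drug dose plus five library-drug doses (not always all listed) in √10 steps, then fixed, stained and imaged at 4× after 5 days.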

[2] = compound: COc1cc2nc(N3CCCN(C)CC3)nc(NC3CCN(Cc4ccccc4)CC3)c2cc1OC + Nc1ncn([C@H]2C[C@H](O)[C@@H](CO)O2)c(=O)n1 [Decitabine] (partner 2 µM)
Method in brief: as §1

AZD6482 + Linsitinib = compound: Cc1cc([C@@H](C)Nc2ccccc2C(=O)O)c2nc(N3CCOCC3)cc(=O)n2c1 [AZD6482] + C[C@]1(O)C[C@@H](c2nc(-c3ccc4ccc(-c5ccccc5)nc4c3)c3c(N)nccn32)C1 [Linsitinib] (partner 1 µM)
Method in brief: as §1

[3] = compound: COc1cc2nc(N3CCCN(C)CC3)nc(NC3CCN(Cc4ccccc4)CC3)c2cc1OC + N=C(N)NC(=N)NCCc1ccccc1 [Phenformin] (partner 250 µM)
Method in brief: as §1

Cell Line | relative viability ([1]; first compound 0.2 µM) | relative viability ([1]; first compound 0.6325 µM) | relative viability ([1]; first compound 2 µM) | relative viability ([1]; first compound 6.325 µM) | relative viability ([2]; first compound 0.2 µM) | relative viability ([2]; first compound 0.6325 µM) | relative viability ([2]; first compound 2 µM) | relative viability ([2]; first compound 6.325 µM) | relative viability (AZD6482 + Linsitinib; first compound 0.08 µM) | relative viability (AZD6482 + Linsitinib; first compound 0.253 µM) | relative viability (AZD6482 + Linsitinib; first compound 0.8 µM) | relative viability (AZD6482 + Linsitinib; first compound 2.53 µM) | relative viability (AZD6482 + Linsitinib; first compound 8 µM) | relative viability ([3]; first compound 0.2 µM) | relative viability ([3]; first compound 0.6325 µM) | relative viability ([3]; first compound 2 µM) | relative viability ([3]; first compound 6.325 µM)
NCI-H1437 | 1.12 | 1.06 | 1.21 | 0.965 | 0.61 | 0.522 | 0.584 | 0.577 | 0.943 | 1.08 | 0.998 | 0.574 | 0.657 | 0.261 | 0.329 | 0.326 | 0.297
NCI-H460 | 0.0382 | 0.0418 | 0.0348 | 0.0281 | 0.484 | 0.449 | 0.431 | 0.389 | 0.717 | 0.703 | 0.783 | 0.306 | 0.206 | 0.501 | 0.492 | 0.478 | 0.484
NCI-H1666 | 0.973 | 0.997 | 1.11 | 0.947 | 0.597 | 0.805 | 0.658 | 0.729 | 0.536 | 0.586 | 0.63 | 0.589 | 0.574 | 0.545 | 0.574 | 0.542 | 0.505
NCI-H1651 | 0.905 | 0.846 | 1.14 | 0.804 | 0.587 | 0.598 | 0.639 | 0.617 | 0.674 | 0.663 | 0.733 | 0.63 | 0.591 | 0.351 | 0.33 | 0.329 | 0.318
NCI-H1755 | 0.44 | 0.536 | 0.406 | 0.478 | 0.657 | 0.669 | 0.689 | 0.663 | 0.87 | 0.864 | 0.75 | 0.497 | 0.467 | 0.604 | 0.628 | 0.58 | 0.574
NCI-H661 | 0.903 | 0.894 | 0.911 | 0.957 | 0.58 | 0.569 | 0.588 | 0.689 | 0.446 | 0.422 | 0.398 | – | 0.37 | 0.295 | 0.296 | 0.27 | 0.266
HARA | 0.703 | 0.467 | 0.744 | 0.736 | 0.548 | 0.556 | 0.697 | 0.442 | 0.691 | 0.974 | 1.11 | – | 0.775 | 0.474 | 0.425 | 0.494 | 0.462
NCI-H596 | 0.87 | 0.871 | 0.927 | 1.02 | 1.13 | 0.934 | 0.958 | 1.03 | 0.789 | 0.979 | 1.01 | 0.957 | 1.02 | 0.724 | 0.756 | 0.696 | 0.798
NCI-H23 | 0.223 | 0.209 | 0.206 | 0.187 | 0.307 | 0.334 | 0.316 | 0.322 | 0.532 | 0.477 | 0.533 | 0.338 | 0.57 | 0.743 | 0.717 | 0.936 | 0.794
LCLC-97TM1 | 0.79 | 0.73 | 0.822 | 0.777 | 0.244 | 0.202 | 0.225 | 0.27 | 0.189 | 0.158 | 0.168 | 0.134 | 0.169 | 0.432 | 0.401 | 0.503 | 0.465
EPLC-272H | 0.228 | 0.736 | 0.262 | 0.432 | 0.392 | 0.387 | 0.341 | 0.38 | 0.999 | – | 0.898 | 0.667 | 0.537 | 0.353 | 0.335 | 0.318 | 0.348
NCI-H1915 | 0.762 | 0.731 | 0.794 | 0.893 | 0.263 | 0.26 | 0.276 | 0.264 | 0.982 | 1.1 | 1.09 | 1.03 | 1.1 | 0.371 | 0.351 | 0.374 | 0.364
NCI-H2405 | 0.778 | 0.673 | 0.75 | 0.786 | 0.706 | 0.745 | 0.784 | 0.729 | 0.399 | – | 0.673 | 0.427 | 0.629 | 0.425 | 0.444 | 0.421 | 0.371
NCI-H322M | 0.766 | 0.943 | 0.799 | 0.832 | 0.717 | 0.708 | 0.768 | 0.708 | 0.718 | 0.601 | 0.707 | 0.355 | 0.651 | 0.669 | 0.743 | 0.748 | 0.762
NCI-H1395 | 0.7 | 0.695 | 0.7 | 0.71 | 0.712 | 0.71 | 0.743 | 0.706 | 0.879 | 0.639 | 0.661 | 0.436 | 0.732 | 0.461 | 0.451 | 0.433 | 0.397
NCI-H358 | 0.506 | 0.275 | 0.434 | 0.208 | 0.203 | 0.2 | 0.2 | 0.158 | 0.545 | 0.795 | 0.679 | 0.293 | 0.528 | 0.318 | 0.522 | 0.296 | 0.305
NCI-H838 | 0.378 | 0.324 | 0.296 | 0.294 | 0.45 | 0.466 | 0.508 | 0.474 | 0.805 | 0.994 | 0.934 | 0.614 | 0.769 | 0.769 | 0.776 | 0.576 | 0.502
